Several values for one entry are separate records, joined by “and”; a condition that tells them apart may be missing. Equal values may be shown once.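 Protocol summary: plate cells (96-well), add compound at 5 concentrations, incubate 48 h, interpolate endpoints linearly. Abbreviation: GI50, concentration required for 50% inhibition of growth. Definition used: TGI = concentration required for complete inhibition of growth.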
Assays:
Assay in all cases: DTP human tumour cell line panel, 48 h
HL-60(TB) leukemia = system: HL-60(TB) leukemia
MDA-MB-435 = system: MDA-MB-435
IGROV1 ovarian = system: IGROV1 ovarian
A498 renal = system: A498 renal
A549 NSCLC = system: A549 NSCLC
COLO 205 colon = system: COLO 205 colon
UACC-62 melanoma = system: UACC-62 melanoma
RPMI-8226 leukemia = system: RPMI-8226 leukemia

Q: With `CC(=O)ON1CCCC(P(=O)(OCCSC(=O)C(C)(C)C)OCCSC(=O)C(C)(C)C)C1=O` (stereo not given) as the compound, how does the GI50 (HL-60(TB) leukemia) read?
A: 1680 nM

Q: What about the TGI (HL-60(TB) leukemia) of the same compound?
A: 11.3 µM

Q: What about the GI50 (MDA-MB-435) of the same compound?
A: 3.02 µM

Q: What about the TGI (MDA-MB-435) of the same compound?
A: 88.6 µM

Q: And the GI50 (IGROV1 ovarian)?
A: 808 nM

Q: What about the TGI (IGROV1 ovarian) of the same compound?
A: 6.27 µM

Q: What about the GI50 (A498 renal) of the same compound?
A: 304 nM

Q: What about the TGI (A498 renal) of the same compound?
A: 3.49 µM

Q: What about the GI50 (A549 NSCLC) of the same compound?
A: 1520 nM

Q: And the TGI (A549 NSCLC)?
A: > 100 µM

Q: What about the GI50 (COLO 205 colon) of the same compound?
A: 3.88 µM

Q: And the TGI (COLO 205 colon)?
A: > 100 µM

Q: And the GI50 (UACC-62 melanoma)?
A: 1570 nM

Q: What about the TGI (UACC-62 melanoma) of the same compound?
A: 8.58 µM

Q: What about the GI50 (RPMI-8226 leukemia) of the same compound?
A: 1450 nM

Q: And the TGI (RPMI-8226 leukemia)?
A: 11.3 µM

Q: Which GI50 (HL-60(TB) leukemia) does the source give for `Nc1ncn([C@@H]2O[C@H](CO)[C@@H](O)[C@H]2O)c(=O)n1` here?
A: 699 nM

Q: What about the TGI (HL-60(TB) leukemia) of the same compound?
A: 4.91 µM

Q: And the GI50 (A498 renal)?
A: 1410 nM

Q: What about the TGI (A498 renal) of the same compound?
A: 13.8 µM

Q: What about the GI50 (A549 NSCLC) of the same compound?
A: 1030 nM

Q: What about the TGI (A549 NSCLC) of the same compound?
A: > 100 µM

Q: What about the GI50 (COLO 205 colon) of the same compound?
A: 1.21 µM

Q: What about the TGI (COLO 205 colon) of the same compound?
A: 3.02 µM

Q: What about the GI50 (UACC-62 melanoma) of the same compound?
A: 658 nM

Q: What about the TGI (UACC-62 melanoma) of the same compound?
A: 8.67 µM

Q: What about the GI50 (RPMI-8226 leukemia) of the same compound?
A: 669 nM

Q: What about the TGI (RPMI-8226 leukemia) of the same compound?
A: > 100 µM

Q: How did the GI50 (HL-60(TB) leukemia) turn out when `O=C(NC[C@H](O)CN1CCc2ccccc2C1)c1cc(NC2COC2)ncn1` was run?
A: 20300 nM

Q: And the TGI (HL-60(TB) leukemia)?
A: 60.5 µM

Q: And the GI50 (MDA-MB-435)?
A: 12.9 µM

Q: And the TGI (MDA-MB-435)?
A: 94.1 µM

Q: What about the GI50 (IGROV1 ovarian) of the same compound?
A: 15700 nM

Q: What about the TGI (IGROV1 ovarian) of the same compound?
A: 39.9 µM

Q: What about the GI50 (A549 NSCLC) of the same compound?
A: 39500 nM

Q: What about the TGI (A549 NSCLC) of the same compound?
A: > 100 µM

Q: And the GI50 (COLO 205 colon)?
A: 13.4 µM

Q: What about the TGI (COLO 205 colon) of the same compound?
A: > 100 µM

Q: What about the GI50 (UACC-62 melanoma) of the same compound?
A: 21300 nM

Q: What about the TGI (UACC-62 melanoma) of the same compound?
A: > 100 µM

Q: And the GI50 (RPMI-8226 leukemia)?
A: 4220 nM

Q: And the TGI (RPMI-8226 leukemia)?
A: 43.5 µM

Q: With `O=c1oc2ccc(-c3ccc(F)cc3F)cc2c(=O)n1-c1cccc(C(F)(F)F)c1` as the compound, how does the GI50 (HL-60(TB) leukemia) read?
A: 1330 nM

Q: And the TGI (HL-60(TB) leukemia)?
A: 3.89 µM

Q: What about the GI50 (MDA-MB-435) of the same compound?
A: 1.44 µM

Q: And the TGI (MDA-MB-435)?
A: 8.04 µM

Q: And the GI50 (IGROV1 ovarian)?
A: 1660 nM

Q: And the TGI (IGROV1 ovarian)?
A: 22.2 µM

Q: What about the GI50 (A498 renal) of the same compound?
A: 210 nM

Q: What about the TGI (A498 renal) of the same compound?
A: 0.888 µM

Q: And the GI50 (A549 NSCLC)?
A: 1750 nM

Q: What about the TGI (A549 NSCLC) of the same compound?
A: 34.8 µM

Q: What about the GI50 (COLO 205 colon) of the same compound?
A: 10.4 µM

Q: And the TGI (COLO 205 colon)?
A: 24.7 µM

Q: And the GI50 (UACC-62 melanoma)?
A: 382 nM

Q: And the TGI (UACC-62 melanoma)?
A: 2.79 µM

Q: What about the GI50 (RPMI-8226 leukemia) of the same compound?
A: 395 nM

Q: And the TGI (RPMI-8226 leukemia)?
A: 3.26 µM

Q: How did the TGI (HL-60(TB) leukemia) turn out when `CCC(C)(C)c1ccc(OCCCCNC(=O)c2ccc3ccccc3c2O)c(C(C)(C)CC)c1` was run?
A: > 100 µM

Q: What about the TGI (IGROV1 ovarian) of the same compound?
A: > 100 µM

Q: And the TGI (A498 renal)?
A: > 100 µM

Q: And the TGI (A549 NSCLC)?
A: > 100 µM

Q: And the TGI (COLO 205 colon)?
A: 34.2 µM

Q: What about the TGI (UACC-62 melanoma) of the same compound?
A: 92.4 µM

Q: With `COC(=O)[C@]12CC[C@@H](C)[C@H](C)[C@@H]1C1=CC[C@@H]3[C@@]4(C)C[C@@H](O)[C@H](O)[C@@](C)(CO)C4=CC[C@@]3(C)[C@]1(C)CC2` as the compound, how does the GI50 (HL-60(TB) leukemia) read?
A: 16800 nM

Q: What about the TGI (HL-60(TB) leukemia) of the same compound?
A: 34.7 µM

Q: What about the GI50 (MDA-MB-435) of the same compound?
A: 15.4 µM

Q: What about the TGI (MDA-MB-435) of the same compound?
A: 30.3 µM

Q: What about the GI50 (IGROV1 ovarian) of the same compound?
A: 22000 nM

Q: And the TGI (IGROV1 ovarian)?
A: 43.1 µM

Q: What about the GI50 (A498 renal) of the same compound?
A: 19000 nM

Q: And the TGI (A498 renal)?
A: 34 µM

Q: And the GI50 (A549 NSCLC)?
A: 17300 nM

Q: What about the TGI (A549 NSCLC) of the same compound?
A: 35.4 µM

Q: What about the GI50 (COLO 205 colon) of the same compound?
A: 17.9 µM

Q: What about the TGI (COLO 205 colon) of the same compound?
A: 34.4 µM

Q: What about the GI50 (RPMI-8226 leukemia) of the same compound?
A: 13900 nM

Q: What about the TGI (RPMI-8226 leukemia) of the same compound?
A: 34.6 µM

Q: For `CCCC(=O)Nc1cn(COC)c(C(=O)N2C[C@@H]3C[C@]34C2=CC(=O)c2[nH]cc(C)c24)n1`, which TGI (HL-60(TB) leukemia) is on record?
A: 4.9 µM

Q: And the GI50 (MDA-MB-435)?
A: 11.1 µM

Q: What about the TGI (MDA-MB-435) of the same compound?
A: 27.4 µM and 27.1 µM

Q: And the GI50 (IGROV1 ovarian)?
A: 1270 nM

Q: What about the TGI (IGROV1 ovarian) of the same compound?
A: 29.5 µM and 10.8 µM

Q: What about the TGI (A498 renal) of the same compound?
A: 18.2 µM

Q: And the TGI (A549 NSCLC)?
A: 50 µM and 30 µM

Q: And the GI50 (COLO 205 colon)?
A: 6.31 µM

Q: What about the TGI (COLO 205 colon) of the same compound?
A: 16.6 µM and 23.7 µM

Q: And the GI50 (UACC-62 melanoma)?
A: 12400 nM

Q: What about the TGI (UACC-62 melanoma) of the same compound?
A: 16.8 µM and 24.9 µM

Q: And the GI50 (RPMI-8226 leukemia)?
A: 1870 nM

Q: What about the TGI (RPMI-8226 leukemia) of the same compound?
A: 41.5 µM and 6.75 µM

Q: `NS(=O)(=O)c1ccc(N=Nc2c(O)c(C(=O)O)cc3ccccc23)cc1` was tested. Which TGI (HL-60(TB) leukemia) did it give?
A: > 100 µM

Q: What about the TGI (MDA-MB-435) of the same compound?
A: > 100 µM

Q: And the TGI (IGROV1 ovarian)?
A: > 100 µM

Q: What about the TGI (A498 renal) of the same compound?
A: > 100 µM

Q: What about the TGI (A549 NSCLC) of the same compound?
A: > 100 µM

Q: And the TGI (COLO 205 colon)?
A: > 84.2 µM

Q: What about the TGI (UACC-62 melanoma) of the same compound?
A: > 100 µM

Q: What about the TGI (RPMI-8226 leukemia) of the same compound?
A: > 100 µM

Q: `O=C(Nc1cc(C(F)(F)F)cc(C(F)(F)F)c1)c1cc(Cl)ccc1O` was tested. Which GI50 (HL-60(TB) leukemia) did it give?
A: 201 nM and 239 nM

Q: And the TGI (HL-60(TB) leukemia)?
A: 1.69 µM and 0.641 µM

Q: What about the GI50 (MDA-MB-435) of the same compound?
A: 0.288 µM and 0.284 µM

Q: What about the TGI (MDA-MB-435) of the same compound?
A: 1.31 µM and 1.61 µM

Q: What about the GI50 (IGROV1 ovarian) of the same compound?
A: 271 nM and 357 nM

Q: What about the TGI (IGROV1 ovarian) of the same compound?
A: > 2.34 µM and 11.9 µM

Q: And the GI50 (A498 renal)?
A: 45 nM and < 14.1 nM

Q: And the TGI (A498 renal)?
A: 0.241 µM and 0.178 µM

Q: What about the GI50 (A549 NSCLC) of the same compound?
A: 293 nM and 319 nM

Q: What about the TGI (A549 NSCLC) of the same compound?
A: > 4.32 µM and 12.8 µM

Q: What about the GI50 (COLO 205 colon) of the same compound?
A: 0.696 µM and 1.34 µM

Q: And the TGI (COLO 205 colon)?
A: 2.34 µM and 3.22 µM

Q: And the GI50 (UACC-62 melanoma)?
A: 129 nM and 100 nM

Q: What about the TGI (UACC-62 melanoma) of the same compound?
A: 0.668 µM and 0.595 µM

Q: And the GI50 (RPMI-8226 leukemia)?
A: 116 nM and 155 nM

Q: What about the TGI (RPMI-8226 leukemia) of the same compound?
A: 0.578 µM and 0.713 µM
